Test [1] has as its system NF-κB pathway, THP1-Dual™ cells. Description: STING reporter assay in THP1-Dual cells, NF-κB pathway (SEAP, QUANTI-Blue). The following applies: Homo sapiens, THP1-Dual, 20 h, THP1-Dual cells, 10% human plasma, 20 hours; SEAP; 100% activation = 100 μM cGAMP; read-out: NFkB (EC50 μM). The class given is cell-based, human. The method, boiled down:
(§1)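 THP-1-derived dual-reporter cells treated with serially diluted compounds (final top concentration 100 μM) for 20 h at 37° C. NF-κB read as SEAP via QUANTI-Blue at OD620; IRF read as Lucia luminescence via QUANTI-Luc after 5 min. 100% activation set by 100 μM cGAMP, baseline by DMSO.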
(Reporter assays use an easily measured gene product as a stand-in for the process of interest.)

The test system of test [2] is IRF pathway, THP1-Dual™ cells. Description: STING reporter assay in THP1-Dual cells, IRF pathway (Lucia luciferase, QUANTI-Luc). The class given is cell-based, human. The following applies: Homo sapiens, THP1-Dual, 20 h, THP1-Dual cells, 10% human plasma, 20 hours; Lucia luciferase; 100% activation = 100 μM cGAMP; read-out: IRF (EC50 μM). The method, boiled down:
as §1

For orientation: EC50 means the midpoint of the concentration-response curve. On to `COC(=O)c1cccc2cc(Cn3cccc(-c4cnco4)c3=O)oc12` [EXAMPLE 17, Methyl 2-((3-(oxazol-5-yl)-2-oxopyridin-1(2H)-yl)methyl)benzofuran-7-carboxylate], for which the results for the EC50 in test [1] and in test [2] were 73 µM and 48 µM, respectively.
In the same order, the values of `COC(=O)c1cccc2cc(Cn3cccc(C#N)c3=O)oc12` [EXAMPLE 18, Methyl 2-((3-cyano-2-oxopyridin-1(2H)-yl)methyl)benzofuran-7-carboxylate] are 97 µM and 79 µM.
Taken in the same sequence, the figures for `COC(=O)c1cccc2cc(Cn3ccc4[nH]ncc4c3=O)oc12` [EXAMPLE 19, Methyl 2-({4-oxo-1H,4H,5H-pyrazolo[4,3-c]pyridin-5-yl}methyl)-1-benzofuran-7-carboxylate] were 95 µM and 47 µM.
In the same order, the values of `COC(=O)Cc1cccc2cc(CNC(=O)c3cnn4cccnc34)oc12` [EXAMPLE 20, Methyl 2-(2-((pyrazolo[1,5-a]pyrimidine-3-carboxamido)methyl)benzofuran-7-yl)acetate] are 49 µM and 48 µM.
In the case of `COC(=O)c1cccc2c(Cl)c(CN3CCc4ccncc4C3=O)oc12` [EXAMPLE 21, Methyl 3-chloro-2-((1-oxo-3,4-dihydro-2,7-naphthyridin-2(1H)-yl)methyl)benzofuran-7-carboxylate], the values for the EC50 in test [1] and in test [2] were 3.1 µM and 2.9 µM, respectively.
In the same order, the values of `COC(=O)c1cccc2c(Cl)c(CNC(=O)c3cnn4cccnc34)oc12` [EXAMPLE 22, Methyl 3-chloro-2-((pyrazolo[1,5-a]pyrimidine-3-carboxamido)methyl)benzofuran-7-carboxylate] are 0.67 µM and 0.6 µM.
Taken in the same sequence, the figures for `COC(=O)c1ccc(F)c2cc(CNC(=O)c3cnn4cccnc34)oc12` [EXAMPLE 23, methyl 4-fluoro-2-((pyrazolo[1,5-a]pyrimidine-3-carboxamido)methyl)-benzofuran-7-carboxylate] were 1.8 µM and 2 µM.
Taken in the same sequence, the figures for `COC(=O)c1ccc(F)c2cc(Cn3cnc4ccncc4c3=O)oc12` [EXAMPLE 25] were 15 µM and 10 µM.
With `COC(=O)c1ccc(Cl)c2cc(CNC(=O)c3cnn4cccnc34)oc12` [EXAMPLE 26, Methyl 4-chloro-2-((pyrazolo[1,5-a]pyrimidine-3-carboxamido)methyl)benzofuran-7-carboxylate], the results for the half-maximal effective concentration (EC50) in test [1] and in test [2] were 0.67 µM and 0.63 µM, respectively.
Turning to `COC(=O)c1ccc(C)c2cc(CN3CCc4ccncc4C3=O)oc12` [EXAMPLE 28, Methyl 4-methyl-2-((1-oxo-3,4-dihydro-2,7-naphthyridin-2(1H)-yl)methyl)benzofuran-7-carboxylate], the concentration giving a half-maximal response (EC50) in test [1] was found to be 3.6 µM; in test [2], 3.1 µM.
For `COC(=O)c1ccc(C)c2cc(Cn3cnc4ccncc4c3=O)oc12` [EXAMPLE 29, Methyl 4-methyl-2-((4-oxopyrido[4,3-d]pyrimidin-3(4H)-yl)methyl)benzofuran-7-carboxylate], the results for the EC50 in test [1] and in test [2] were 2.9 µM and 3 µM, respectively.
In the same order, the values of `COC(=O)c1ccc(C)c2cc(CN3Cc4ccncc4C3=O)oc12` [EXAMPLE 30, Methyl 4-methyl-2-((3-oxo-1,3-dihydro-2H-pyrrolo[3,4-c]pyridin-2-yl)methyl)benzofuran-7-carboxylate] are 31 µM and 27 µM.
In the same order, the values of `COC(=O)c1ccc(C)c2cc(CNC(=O)c3cnn4cccnc34)oc12` [EXAMPLE 31, Methyl 4-methyl-2-((pyrazolo[1,5-a]pyrimidine-3-carboxamido)methyl)benzofuran-7-carboxylate] are 1.6 µM and 1.1 µM.
Taken in the same sequence, the figures for `COC(=O)c1ccc(C)c2cc(Cn3ccc4ccncc4c3=O)oc12` [EXAMPLE 32] were 3.4 µM and 3.5 µM.
Consider `COC(=O)c1ccc(OC)c2cc(CNC(=O)c3cnn4cccnc34)oc12` [EXAMPLE 33, Methyl 4-methoxy-2-((pyrazolo[1,5-a]pyrimidine-3-carboxamido)methyl)benzofuran-7-carboxylate], for which the concentration giving a half-maximal response (EC50) came to 16 µM in test [1] and 11 µM in test [2].
Taken in the same sequence, the figures for `COC(=O)c1ccc(O)c2cc(CNC(=O)c3cnn4cccnc34)oc12` [EXAMPLE 34, Methyl 4-hydroxy-2-((pyrazolo[1,5-a]pyrimidine-3-carboxamido)methyl)benzofuran-7-carboxylate] were over 100 µM and 79 µM.
Taken in the same sequence, the figures for `COC(=O)c1cc(F)cc2cc(CNC(=O)c3cnn4cccnc34)oc12` [EXAMPLE 35, Methyl 5-fluoro-2-((pyrazolo[1,5-a]pyrimidine-3 carboxamido)methyl)benzofuran-7-carboxylate] were 0.77 µM and 0.53 µM.
In the case of `COC(=O)c1cc(F)cc2cc(CN3CCc4ccncc4C3=O)oc12` [EXAMPLE 36, Methyl 5-fluoro-2-((1-oxo-3,4-dihydro-2,7-naphthyridin-2(1H)-yl)methyl)benzofuran-7-carboxylate], the figures for the 50% effective concentration (EC50) in test [1] and in test [2] were 4.1 µM and 3.6 µM, respectively.
In the same order, the values of `COC(=O)c1cc(F)cc2cc(Cn3ccc4ncncc4c3=O)oc12` [EXAMPLE 37, Methyl 5-fluoro-2-((5-oxopyrido[4,3-d]pyrimidin-6(5H)-yl)methyl)benzofuran-7-carboxylate] are 12 µM and 11 µM.
Taken in the same sequence, the figures for `COC(=O)c1cc(F)cc2cc(Cn3ccc4ccncc4c3=O)oc12` [EXAMPLE 38, Methyl 5-fluoro-2-((1-oxo-2,7-naphthyridin-2(1H)-yl)methyl)benzofuran-7-carboxylate] were 2.5 µM and 2.3 µM.
Taken in the same sequence, the figures for `COC(=O)c1cc(F)cc2cc(Cn3cnc4ccncc4c3=O)oc12` [EXAMPLE 39, Methyl 5-fluoro-2-((4-oxopyrido[4,3-d]pyrimidin-3(4H)-yl)methyl)benzofuran-7-carboxylate] were 3.6 µM and 4 µM.
With `COC(=O)c1cc(F)cc2cc(CNC(=O)c3cnn4ccc(OC)nc34)oc12` [EXAMPLE 40, Methyl 5-fluoro-2-((5-methoxypyrazolo[1,5-a]pyrimidine-3-carboxamido)methyl)benzofuran-7-carboxylate], the concentration for a half-maximal effect (EC50) in test [1] amounted to 3.2 µM; in test [2], 2.1 µM.
In the case of `COC(=O)c1cc(F)cc2cc(CNC(=O)c3cnc4cccnn34)oc12` [EXAMPLE 41, Methyl 5-fluoro-2-((imidazo[1,2-b]pyridazine-3-carboxamido)methyl)benzofuran-7-carboxylate], the concentration for a half-maximal effect (EC50) was 1.3 µM in test [1] and over 33 µM in test [2].
In the same order, the values of `COC(=O)c1cc(F)cc2cc(CNC(=O)c3cnccn3)oc12` [EXAMPLE 42, Methyl 5-fluoro-2-((pyrazine-2-carboxamido)methyl)benzofuran-7-carboxylate] are 3.6 µM and 4.1 µM.
Taken in the same sequence, the figures for `COC(=O)c1cc(F)cc2cc(CN3Cc4ccncc4C3=O)oc12` [EXAMPLE 43, Methyl 5-fluoro-2-((3-oxo-1,3-dihydro-2H-pyrrolo[3,4-c]pyridin-2-yl)methyl)benzofuran-7-carboxylate] were 24 µM and 19 µM.
With `COC(=O)c1cc(F)cc2cc(CN3Cc4ncncc4C3=O)oc12` [EXAMPLE 44, Methyl 5-fluoro-2-((5-oxo-5,7-dihydro-6H-pyrrolo[3,4-d]pyrimidin-6-yl)methyl)benzofuran-7-carboxylate], the EC50 in test [1] is 13 µM; in test [2], 12 µM.
Taken in the same sequence, the figures for `COC(=O)c1cc(F)cc2cc(C(C)NC(=O)c3cnn4cccnc34)oc12` (stereo not drawn) [EXAMPLE 45, Methyl-5-fluoro-2-(1-(pyrazolo[1,5-a]pyrimidine-3-carboxamido)ethyl)benzofuran-7-carboxylate] were 0.99 µM and 0.98 µM.
Turning to `COC(=O)c1cc(F)cc2cc([C@H](C)NC(=O)c3cnn4cccnc34)oc12` [EXAMPLE 46, Methyl (S)-5-fluoro-2-(1-(pyrazolo[1,5-a]pyrimidine-3-carboxamido)ethyl)benzofuran-7-carboxylate], the EC50 in test [1] and in test [2] was 1.5 µM in each case.
Turning to `C=Cc1cc(C(=O)OC)c2oc(CNC(=O)c3cnn4cccnc34)cc2c1` [EXAMPLE 100, Methyl 2-((pyrazolo[1,5-a]pyrimidine-3-carboxamido)methyl)-5-vinylbenzofuran-7-carboxylate], the results for the 50% effective concentration (EC50) in test [1] and in test [2] were 2.2 µM and 2.5 µM, respectively.
Taken in the same sequence, the figures for `CCc1cc(C(=O)OC)c2oc(CNC(=O)c3cnn4cccnc34)cc2c1` [EXAMPLE 101, Methyl 5-ethyl-2-((pyrazolo[1,5-a]pyrimidine-3-carboxamido)methyl)benzofuran-7-carboxylate] were 10 µM and 12 µM.
In the same order, the values of `COC(=O)c1cc(OC)cc2cc(CNC(=O)c3cnn4cccnc34)oc12` [EXAMPLE 102, Methyl 5-methoxy-2-((pyrazolo[1,5-a]pyrimidine-3-carboxamido)methyl)benzofuran-7-carboxylate] are 3 µM and 2.5 µM.
In the same order, the values of `COC(=O)c1cc(O)cc2cc(CN3CCc4ccncc4C3=O)oc12` [EXAMPLE 103, Methyl 5-hydroxy-2-((1-oxo-3,4-dihydro-2,7-naphthyridin-2(1H)-yl)methyl)benzofuran-7-carboxylate] are 23 µM and 25 µM.
Regarding `COC(=O)c1cc(O)cc2cc(CN3Cc4ccncc4C3=O)oc12` [EXAMPLE 104, Methyl 5-hydroxy-2-((3-oxo-1,3-dihydro-2H-pyrrolo[3,4-c]pyridin-2-yl)methyl)benzofuran-7-carboxylate], the half-maximal effective concentration (EC50) in test [1] stood at 37 µM; in test [2], 63 µM.

For the origin of these results see patent US12673954B2 (BRISTOL-MYERS SQUIBB COMPANY, priority 2021, dated 2026).
